Experimental data published in patent US8178534B2, “cMET inhibitors” (Takeda Pharmaceutical Company Limited, priority 2008, dated 2012).
Structures can show the parent of a compound that is named as a salt.

Experiments:
EBC1 = experiment: Inhibition of cell viability (MTS), EBC1; type: cell-based; conditions: 96 hours incubation
Procedure: (§1) Cells were maintained at 37° C. in a humidified atmosphere containing 5%-8% CO2 following the instructions of the supplier (American Type Culture Collection (Rockville, Md.)). Inhibition of cell viability was determined for a panel of tumor cell lines (MKN45, EBC1 and A549), using the soluble tetrazolium salt, MTS (Promega, Madison, Wis.). Cells were seeded at 2,000-7,500 cells/well in 96-well tissue culture plates and were allowed to attach for approximately 24 hours prior to addition of compounds or DMSO vehicle. […] Cells were treated in duplicate with test compounds. Compounds were serially diluted (1:2.5) from column 1 to 11 and column 12 contained DMSO vehicle. Compounds were diluted into cell growth medium then compound solution was added to cells. Equal amounts of DMSO were added to cells (final concentration is 0.5%). After background correction and normalization against DMSO-treated cells, EC50 values were calculated using non-linear curve-fitting of the cell viability as a function of compound concentration. The MKN45 and EBC1 cell lines contain high levels of phospho-Met and are dependent on cMET for proliferation, whereas the A549 line is used as negative control.
(§2) EC50 values may be calculated by non-linear curve fitting of the compound concentrations and fluorescence intensities to the standard EC50 equation.

A549 = experiment: Inhibition of cell viability (MTS), A549 (negative control line); type: cell-based; conditions: A549 cells (negative control), 96 hours incubation
Procedure: as §1, §2

MKN45 = experiment: Inhibition of cell viability (MTS), MKN45; type: cell-based; conditions: 96 hours incubation
Procedure: as §1, §2

[1] = biological target: T1, cMET enzyme (amino acids 1023-1360) (Homo sapiens, UniProt P08581); experiment: Determination of inhibition of cMET (capillary electrophoresis, phosphorylated peptide product); type: biochemical; conditions: 1.2 nM cMET, 50 μM ATP, 2 μM FL-2 peptide, 2 hours room temperature
T1 construct: The cMET enzyme (amino acids 1023-1360) nominally at 24 μM was held at −80° C. until use; His tag (N, cleaved yes); made in house; host or cells: Sf9 cells
Procedure: The inhibitory property of a compound relative to cMET catalysis was determined by use of capillary electrophoresis with fluorescence quantification of a phosphorylated peptide product for cMET. The cMET enzyme (amino acids 1023-1360) nominally at 24 μM was held at −80° C. until use, in a buffer containing 25 mM Tris-HCl pH 8.5, 150 mM NaCl, 3 mM DTT and 10% glycerol. […] Following purification, the tag was removed and enzyme concentrated. […] To activate the enzyme fully, frozen cMET was thawed quickly and activated with the addition of assay buffer (50 mM HEPES pH 7.5, 10 mM NaCl, 10 mM MgCl2, 0.01% Brij® 35), 1.25 mM ATP, 5 mM MgCl2 and 5 mM DTT at a cMET concentration of 2.4 μM followed by a 30 minute incubation at room temperature. […] Next, cMET enzyme (1.2 nM final) was added and the system incubated at room temperature for 20 minutes. Catalysis was initiated by the addition of ATP (50 μM final). Assays were incubated at room temperature for 2 hours then quenched by the addition of EDTA. Phosphorylated peptide product was quantified by monitoring fluorescence during capillary electrophoresis with Caliper LifeSciences LabChip 3000 under the following settings: base pressure=−0.1 psi, screen pressure=−1.2 psi, downstream voltage=−500 V, upstream voltage=−2300 V, chip type=TC372. The elution buffer was identical to the assay buffer except for the absence of DTT, FL-2 and ATP and the addition of 0.1% coating reagent (Caliper). […] Peak height was quantified and used to determine enzyme velocities.
IC50 values were calculated by non-linear least squares curve fitting of the standard IC50 equation to background-corrected cMET velocity versus compound concentration.

[2] = Homo sapiens, EBC-1, 96 h, EBC1 cells
[3] = Homo sapiens, MKN-45, 96 h, MKN45 cells

T1 sequence (P08581 1023-1360): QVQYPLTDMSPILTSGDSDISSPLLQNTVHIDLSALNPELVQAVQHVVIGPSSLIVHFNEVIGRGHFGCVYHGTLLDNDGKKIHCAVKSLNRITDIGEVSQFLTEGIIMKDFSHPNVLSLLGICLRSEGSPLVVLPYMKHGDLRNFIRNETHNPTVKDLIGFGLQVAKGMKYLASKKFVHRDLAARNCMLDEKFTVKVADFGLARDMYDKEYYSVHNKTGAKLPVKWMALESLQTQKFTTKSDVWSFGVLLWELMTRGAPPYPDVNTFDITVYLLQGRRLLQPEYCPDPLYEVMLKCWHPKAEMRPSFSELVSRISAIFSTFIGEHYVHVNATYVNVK

| SMILES | IC50 [1] [nM] | EC50 (EBC1; [2]) [nM] | EC50 (A549; Homo sapiens, A549, 96 h) [nM] | EC50 (MKN45; [3]) [nM] | other results |
| --- | --- | --- | --- | --- | --- |
| N#Cc1cc(-c2ccc3nnc(Sc4ccc5nc(NC(=O)C6CC6)cn5n4)n3c2)ccc1OCCO [Compound 107, N-(6-(6-(3-cyano-4-(2-hydroxyethoxy)phenyl)-[1,2,4]triazolo[4,3-a]pyridin-3-ylthio)imidazo[1,2-b]pyridazin-2-yl)cyclopropanecarboxamide] | < 30 | – | – | – | EC50 (EBC1; Homo sapiens, EBC-1, EBC1 cells): 60 to 100 nM; EC50 (A549; Homo sapiens): > 50000 nM; EC50 (MKN45; Homo sapiens, MKN-45, MKN45 cells): 100 to 249 nM |
| Nc1cn2nc(Sc3nnc4ccccn34)ccc2n1 [Compound 114, 6-([1,2,4]triazolo[4,3-a]pyridin-3-ylthio)imidazo[1,2-b]pyridazin-2-amine] | > 630 | > 630 | > 50000 | > 630 | – |
| CC(c1ccc2nc(NC(=O)C3CC3)cn2n1)c1nnc2ccc(-c3ccc(F)cc3)cn12 (stereo not shown) [Compound 55, N-(6-(1-(6-(4-fluorophenyl)-[1,2,4]triazolo[4,3-a]pyridin-3-yl)ethyl)imidazo[1,2-b]pyridazin-2-yl)cyclopropanecarboxamide] | < 30 | < 30 | > 50000 | < 30 | – |
| COc1ccc(-c2ccc3nnc(C(C)c4ccc5nc(NC(=O)C6CC6)cn5n4)n3c2)cc1C (stereo not shown) [Compound 70, N-(6-(1-(6-(4-methoxy-3-methylphenyl)-[1,2,4]triazolo[4,3-a]pyridin-3-yl)ethyl)imidazo[1,2-b]pyridazin-2-yl)cyclopropanecarboxamide] | < 30 | < 30 | > 50000 | < 30 | – |
| CNC(=O)c1ccc(-c2ccc3nnc(Sc4ccc5nc(NC(=O)C6CC6)cn5n4)n3c2)cc1Cl [Compound 28, 2-chloro-4-(3-(2-(cyclopropanecarboxamido)imidazo[1,2-b]pyridazin-6-ylthio)-[1,2,4]triazolo[4,3-a]pyridin-6-yl)-N-methylbenzamide] | < 30 | < 35 | > 50000 | < 100 | – |
| O=C(Nc1cn2nc(C(F)(F)c3nnc4ccc(-c5cncnc5)cn34)ccc2n1)C1CC1 [Compound 87, N-(6-(difluoro(6-(pyrimidin-5-yl)-[1,2,4]triazolo[4,3-a]pyridin-3-yl)methyl)imidazo[1,2-b]pyridazin-2-yl)cyclopropanecarboxamide] | 100 to 249 | 30 to 59 | > 50000 | 30 to 59 | – |
| CCS(=O)(=O)c1cccc(-c2ccc3nnn(Cc4ccc5nc(NC(=O)C6CC6)cn5n4)c3c2)c1 [Compound 18] | 30 to 59 | 100 to 199 | > 19500 | 100 to 249 | – |
| COc1cccc(-c2ccc3nnc(C(F)(F)c4ccc5nc(NC(=O)C6CC6)cn5n4)n3c2)c1 [Compound 76, N-(6-(difluoro(6-(3-methoxyphenyl)-[1,2,4]triazolo[4,3-a]pyridin-3-yl)methyl)imidazo[1,2-b]pyridazin-2-yl)cyclopropanecarboxamide] | < 30 | < 30 | > 50000 | < 30 | – |
| O=C(Nc1cn2nc(Cn3nnc4ccc(-c5cccnc5)cc43)ccc2n1)C1CC1 [Compound 16] | > 100 | > 200 | > 50000 | > 630 | – |
| O=C(Nc1cn2nc(Sc3nnc4ccccn34)ccc2n1)C1CC1 [3 (free base), N-(6-([1,2,4]Triazolo[4,3-a]pyridin-3-ylthio)imidazo[1,2-b]pyridazin-2-yl)cyclopropanecarboxamide] | > 100 | – | – | – | EC50 (EBC1; EBC1 cells): 60 to 100 nM; EC50 (A549): 8000 to 25000 nM; EC50 (MKN45; MKN45 cells): 100 to 199 nM |
| O=C(Nc1cn2nc(Sc3nnc4ccc(C(F)(F)F)cn34)ccc2n1)C1CC1 [Compound 41, N-(6-(6-(trifluoromethyl)-[1,2,4]triazolo[4,3-a]pyridin-3-ylthio)imidazo[1,2-b]pyridazin-2-yl)cyclopropanecarboxamide] | 60 to 100 | 35 to 99 | 8000 to 25000 | 100 to 249 | – |
| COCCOCc1ccc2nnc(Sc3ccc4nc(NC(=O)C5CC5)cn4n3)n2c1 [Compound 112, N-(6-(6-((2-methoxyethoxy)methyl)-[1,2,4]triazolo[4,3-a]pyridin-3-ylthio)imidazo[1,2-b]pyridazin-2-yl)cyclopropanecarboxamide] | 100 to 249 | – | – | – | – |
| NC(=O)c1ccc(-c2ccc3nnc(C(F)(F)c4ccc5nc(NC(=O)C6CC6)cn5n4)n3c2)cc1 [Compound 89, 4-(3-((2-(cyclopropanecarboxamido)imidazo[1,2-b]pyridazin-6-yl)difluoromethyl)-[1,2,4]triazolo[4,3-a]pyridin-6-yl)benzamide] | < 30 | – | – | – | – |
| Cc1ccncc1-c1ccc2nnc(C(F)(F)c3ccc4nc(NC(=O)C5CC5)cn4n3)n2c1 [Compound 94, N-(6-(difluoro(6-(4-methylpyridin-3-yl)-[1,2,4]triazolo[4,3-a]pyridin-3-yl)methyl)imidazo[1,2-b]pyridazin-2-yl)cyclopropanecarboxamide] | 250 to 630 | – | – | – | – |
| CCn1cc(-c2ccc3nnc(Sc4ccc5nc(NC(=O)C6CC6)cn5n4)n3c2)ccc1=O [Compound 106, N-(6-(6-(1-ethyl-6-oxo-1,6-dihydropyridin-3-yl)-[1,2,4]triazolo[4,3-a]pyridin-3-ylthio)imidazo[1,2-b]pyridazin-2-yl)cyclopropanecarboxamide] | < 30 | – | – | – | – |
| CNC(=O)c1ccc(-c2ccc3nnc(C(F)(F)c4ccc5nc(NC(=O)C6CC6)cn5n4)n3c2)cc1 [Compound 95, 4-(3-((2-(cyclopropanecarboxamido)imidazo[1,2-b]pyridazin-6-yl)difluoromethyl)-[1,2,4]triazolo[4,3-a]pyridin-6-yl)-N-methylbenzamide] | < 30 | – | – | – | – |
| Cc1ccn2c(Sc3ccc4nc(NC(=O)C5CC5)cn4n3)nnc2c1 [Compound 43, N-(6-(7-methyl-[1,2,4]triazolo[4,3-a]pyridin-3-ylthio)imidazo[1,2-b]pyridazin-2-yl)cyclopropanecarboxamide] | > 100 | – | – | – | – |
| Cc1c(F)ccc2nnc(Sc3ccc4nc(NC(=O)C5CC5)cn4n3)n12 [Compound 113, N-(6-(6-fluoro-5-methyl-[1,2,4]triazolo[4,3-a]pyridin-3-ylthio)imidazo[1,2-b]pyridazin-2-yl)cyclopropanecarboxamide] | 250 to 630 | – | – | – | – |
| Cn1cc(-c2ccc3nnc(Sc4ccc5nc(NC(=O)C6CC6)cn5n4)n3c2)ccc1=O [Compound 105, N-(6-(6-(1-methyl-6-oxo-1,6-dihydropyridin-3-yl)-[1,2,4]triazolo[4,3-a]pyridin-3-ylthio)imidazo[1,2-b]pyridazin-2-yl)cyclopropanecarboxamide] | < 30 | – | – | – | – |
| Cn1cc(-c2ccc3nnc(C(F)(F)c4ccc5nc(NC(=O)C6CC6)cn5n4)n3c2)cn1 [45 (TFA Salt), N-(6-(difluoro(6-(1-methyl-1H-pyrazol-4-yl)-[1,2,4]triazolo[4,3-a]pyridin-3-yl)methyl)imidazo[1,2-b]pyridazin-2-yl)cyclopropanecarboxamide] | 30 to 59 | – | – | – | – |
| O=C(Nc1cn2cc(Cn3nnc4ncccc43)ccc2n1)C(F)(F)F [Compound 2, N-(6-((1H-[1,2,3]triazolo[4,5-b]pyridin-1-yl)methyl)imidazo-[1,2-a]pyridin-2-yl)-2,2,2-trifluoroacetamide] | > 100 | – | – | – | – |
| O=C(Nc1cn2cc(Cn3nnc4cccnc43)ccc2n1)C(F)(F)F [Compound 1, N-(6-((3H-[1,2,3]triazolo[4,5-b]pyridin-3-yl)methyl)imidazo[1,2-a]pyridin-2-yl)-2,2,2-trifluoroacetamide] | > 100 | – | – | – | – |
